Data reported in patent publication US4810636A, “Chromogenic acridinone enzyme substrates” (Miles Inc., priority 1987, dated 1989).
Several values for one entry are separate records, joined by “and”; a condition that tells them apart may be missing. Identical values can stand only once.

Assays:
Assay type in all cases: biochemical
alkaline phosphatase = assay: Hydrolysis of the phosphate substrate by alkaline phosphatase (KM, Kcat); details: 1.0M diethanolamine buffer (pH=9.8) containing 5.0 mM MgCl2
α-amylase [1] = assay: Liquid analytical test system for the detection of α-amylase; details: for Absorbance (634 nm): 37° C.; for Absorbance/Minute: average of three consecutive readings between 3 and 6 minutes
Description: A liquid α-amylase detection reagent was prepared by combining 1.8 mM DMA-G7 (43) prepared according to Example 9, 38 units of α-glucosidase and 20 units of β-glucosidase in 1.0 mL of buffered solution comprising 50 mM PIPES, 50 mM NaCl, and 5.0 mM calcium chloride (pH 7.0). Amylase control serum (0.025 mL) containing 37 IU/L, 175 IU/L, and 313 IU/L, respectively, of α-amylase were added to the detection reagent, independently, and incubated at 37° C. The enzymatic action of α-amylase on the substrate compound in each of the mixtures liberated shorter chain chromogenic maltooligosaccharide compounds thereof (e.g., DMA-G2 to DMA-G4) which, in turn, was enzymatically acted upon by the α-glucosidase and β-glucosidaseto liberate the optically active form of the dimethyl acridinone chromogen (20). The rate of color change produced by the liberated chromogen in each of the mixtures was measured at 634 nm on a Cary 219 spectrophotometer (Varian Associates, Inc., Sonnyvale, Calif., U.S.A.) from between 1 and 9 minutes after each of the serum samples were added to the detection reagent (Table 2).

α-amylase [2] = assay: Analytical test device for the detection of α-amylase, reflectance; details: for Reactivity × 10^-2: linear regression of L(R) between 180 and 200 seconds, 630 nm
Description: A sheet of Whatman 54 filter paper (Whatman, Inc., Clifton, N.J., U.S.A.) was immersed into a solution comprising the liquid α-amylase detection reagent prepared according to Example 10, 0.1% Triton X-100 (Sigma Chemical Co., St. Louis, Mo., U.S.A.) and 0.5% carboxycellulose, and dried.
Analytical test devices were prepared by mounting 0.5 cm wide×1.0 cm long segment of the aforementioned impregnated filter paper onto and along the edge of one surface of 0.5 cm×8.125 cm polystyrene supports (Tricite®, Dow Chemical Co., Midland, Mich., U.S.A.) previously laminated with a 2 mm strip of Double Stick® double-faced adhesive tape (3M Company, St. Paul, Minn., U.S.A.).
Three 30 μL aliquots of undiluted serum containing 39 IU/L, 78 IU/L, 117 IU/L, 157 IU/L, 235 IU/L, and 313 IU/L, respectively, of α-amylase were applied, independently, to a test device and the rate of color change produced by the liberated chromogen on each device was measured at 630 nm on a Seralyzer® reflectance photometer (Miles Inc., Elkhart, Ind., U.S.A.) from between 0 seconds and 240 seconds after the serum sample was added to each test device.

For CC1(C)C2=CC(=O)C=CC2=Nc2ccc(OP(=O)(O)O)cc21 [Compound 37, disodium-9,9-dimethyl-9H-acridin-2-one-7-phosphate], the Kcat (alkaline phosphatase) was 1.94×10^5 mol/min/mol of enzyme and the Km (alkaline phosphatase) was 480 µM.

With CC1(C)C2=CC(=O)C=CC2=Nc2ccc(O[C@@H]3O[C@H](CO)[C@@H](O[C@H]4O[C@H](CO)[C@@H](O[C@H]5O[C@H](CO)[C@@H](O[C@H]6O[C@H](CO)[C@@H](O[C@H]7O[C@H](CO)[C@@H](O[C@H]8O[C@H](CO)[C@@H](O[C@H]9O[C@H](CO)[C@@H](O)[C@H](O)[C@H]9O)[C@H](O)[C@H]8O)[C@H](O)[C@H]7O)[C@H](O)[C@H]6O)[C@H](O)[C@H]5O)[C@H](O)[C@H]4O)[C@H](O)[C@H]3O)cc21 [DMA-G7, 7-β-maltoheptaosyloxy-9,9-dimethyl-acridin-2-one] the “dose response to the α-amylase concentration” value (α-amylase [1]; 37-313 IU/L, readings between 3 and 6 minutes) was “linear dose response”, the “Absorbance (634 nm)” value (α-amylase [1]; 37 IU/L α-amylase, 1 minute) was 0.123 and the “Absorbance (634 nm)” value (α-amylase [1]; 37 IU/L α-amylase, 2 minutes) was 0.129. For the same compound, the “Absorbance (634 nm)” value (α-amylase [1]; 37 IU/L α-amylase, 3 minutes) was 0.138, the “Absorbance (634 nm)” value (α-amylase [1]; 37 IU/L α-amylase, 4 minutes) was 0.148 and the “Absorbance (634 nm)” value (α-amylase [1]; 37 IU/L α-amylase, 5 minutes) was 0.160. The “Absorbance (634 nm)” value (α-amylase [1]; 37 IU/L α-amylase, 6 minutes) was 0.172, the “Absorbance (634 nm)” value (α-amylase [1]; 37 IU/L α-amylase, 7 minutes) was 0.187 and the “Absorbance (634 nm)” value (α-amylase [1]; 37 IU/L α-amylase, 8 minutes) was 0.202. For the same compound, the “Absorbance (634 nm)” value (α-amylase [1]; 37 IU/L α-amylase, 9 minutes) was 0.218, the Absorbance/Minute (α-amylase [1]; 37 IU/L α-amylase) was 0.011 and the “Absorbance (634 nm)” value (α-amylase [1]; 175 IU/L α-amylase, 1 minute) was 0.150. For the same compound, the “Absorbance (634 nm)” value (α-amylase [1]; 175 IU/L α-amylase, 2 minutes) was 0.178, the “Absorbance (634 nm)” value (α-amylase [1]; 175 IU/L α-amylase, 3 minutes) was 0.223 and the “Absorbance (634 nm)” value (α-amylase [1]; 175 IU/L α-amylase, 4 minutes) was 0.279. For the same compound, the “Absorbance (634 nm)” value (α-amylase [1]; 175 IU/L α-amylase, 5 minutes) was 0.341, the “Absorbance (634 nm)” value (α-amylase [1]; 175 IU/L α-amylase, 6 minutes) was 0.409 and the “Absorbance (634 nm)” value (α-amylase [1]; 175 IU/L α-amylase, 7 minutes) was 0.481. For the same compound, the “Absorbance (634 nm)” value (α-amylase [1]; 175 IU/L α-amylase, 8 minutes) was 0.555, the “Absorbance (634 nm)” value (α-amylase [1]; 175 IU/L α-amylase, 9 minutes) was 0.631 and the Absorbance/Minute (α-amylase [1]; 175 IU/L α-amylase) was 0.062. The “Absorbance (634 nm)” value (α-amylase [1]; 313 IU/L α-amylase, 1 minute) was 0.171, the “Absorbance (634 nm)” value (α-amylase [1]; 313 IU/L α-amylase, 2 minutes) was 0.212 and the “Absorbance (634 nm)” value (α-amylase [1]; 313 IU/L α-amylase, 3 minutes) was 0.282. For the same compound, the “Absorbance (634 nm)” value (α-amylase [1]; 313 IU/L α-amylase, 4 minutes) was 0.372, the “Absorbance (634 nm)” value (α-amylase [1]; 313 IU/L α-amylase, 5 minutes) was 0.474 and the “Absorbance (634 nm)” value (α-amylase [1]; 313 IU/L α-amylase, 6 minutes) was 0.585. For the same compound, the “Absorbance (634 nm)” value (α-amylase [1]; 313 IU/L α-amylase, 7 minutes) was 0.702, the “Absorbance (634 nm)” value (α-amylase [1]; 313 IU/L α-amylase, 8 minutes) was 0.823 and the “Absorbance (634 nm)” value (α-amylase [1]; 313 IU/L α-amylase, 9 minutes) was 0.948. The Absorbance/Minute (α-amylase [1]; 313 IU/L α-amylase) was 0.109, the “dose response to α-amylase” value (α-amylase [2]; 39-313 IU/L α-amylase in undiluted serum) was “linear dose response” and the “Reactivity × 10^-2” value (α-amylase [2]; 39 IU/L α-amylase serum) was 0.384 × 10^-2 and 0.373 × 10^-2 and 0.359 × 10^-2. For the same compound, the “Reactivity × 10^-2” value (α-amylase [2]; 78 IU/L α-amylase serum) was 0.957 × 10^-2 and 0.941 × 10^-2 and 0.954 × 10^-2, the “Reactivity × 10^-2” value (α-amylase [2]; 117 IU/L α-amylase serum) was 1.450 × 10^-2 and 1.510 × 10^-2 and 1.430 × 10^-2 and the “Reactivity × 10^-2” value (α-amylase [2]; 157 IU/L α-amylase serum) was 1.781 × 10^-2 and 1.999 × 10^-2 and 1.886 × 10^-2. The “Reactivity × 10^-2” value (α-amylase [2]; 235 IU/L α-amylase serum) was 2.560 × 10^-2 and 2.596 × 10^-2 and 2.610 × 10^-2 and the “Reactivity × 10^-2” value (α-amylase [2]; 313 IU/L α-amylase serum) was 2.961 × 10^-2 and 2.989 × 10^-2 and 2.916 × 10^-2.
